From PubChem BioAssay AID1919003 (Molecular Pharmacology Branch, DTP, NCI, 2023)

System: 786-0 complex spheroids with HUVEC/MSC, growth % test/control
Assay: Anticancer human tumor 786-0 cell line growth inhibition [AhR];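 further: compound exposure lasted seven days before the read-out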
Conditions: for IC50: curve of first compound; for viability, T/C: stronger effect = lower value; active means viability on the fitted dose curve at most 10% of control; inactive means the rest
Summary of the method: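 Complex tumor spheroids co-cultured with HUVEC and human MSC stroma; AhR antagonists tested in combination with standard-of-care and investigational agents. Top concentration at or near clinical Cmax (else 10 microM), half-log dilutions; growth expressed as percent test/control.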

[1] = second compound 0.1 µM, first compound 0.0316 µM
[2] = second compound 0.1 µM, first compound 0.1 µM
[3] = second compound 0.1 µM, first compound 0.316 µM
[4] = second compound 0.1 µM, first compound 1 µM
[5] = second compound 0.316 µM, first compound 0.0316 µM
[6] = second compound 0.316 µM, first compound 0.1 µM
[7] = second compound 0.316 µM, first compound 0.316 µM
[8] = second compound 0.316 µM, first compound 1 µM
[9] = second compound 1 µM, first compound 0.0316 µM
[10] = second compound 1 µM, first compound 0.1 µM
[11] = second compound 1 µM, first compound 0.316 µM
[12] = second compound 1 µM, first compound 1 µM
[13] = second compound 3.16 µM, first compound 0.0316 µM
[14] = second compound 3.16 µM, first compound 0.1 µM
[15] = second compound 3.16 µM, first compound 0.316 µM
[16] = second compound 3.16 µM, first compound 1 µM
[17] = second compound 10 µM, first compound 0.0316 µM
[18] = second compound 10 µM, first compound 0.1 µM
[19] = second compound 10 µM, first compound 0.316 µM
[20] = second compound 10 µM, first compound 1 µM
[21] = second compound 0.1 µM, first compound 3.16 µM
[22] = second compound 0.1 µM, first compound 10 µM
[23] = second compound 0.316 µM, first compound 3.16 µM
[24] = second compound 0.316 µM, first compound 10 µM
[25] = second compound 1 µM, first compound 3.16 µM
[26] = second compound 1 µM, first compound 10 µM
[27] = second compound 3.16 µM, first compound 3.16 µM
[28] = second compound 3.16 µM, first compound 10 µM
[29] = second compound 10 µM, first compound 3.16 µM
[30] = second compound 10 µM, first compound 10 µM

Nc1ncn(C2CC(O)C(CO)O2)c(=O)n1 (stereo not given) + Cc1cncc(-c2nc(NCCc3c[nH]c4ccccc34)c3ncn(C(C)C)c3n2)c1
inactive: viability, T/C (second compound 0.1 µM, first compound 0.00316 µM) 123% | viability, T/C (second compound 0.1 µM, first compound 0.01 µM) 115% | viability, T/C [1] 118% | viability, T/C [2] 115% | viability, T/C [3] 106% | viability, T/C [4] 95.8% | viability, T/C (second compound 0.316 µM, first compound 0.00316 µM) 116% | viability, T/C (second compound 0.316 µM, first compound 0.01 µM) 128% | viability, T/C [5] 117% | viability, T/C [6] 127% | viability, T/C [7] 113% | viability, T/C [8] 103% | viability, T/C (second compound 1 µM, first compound 0.00316 µM) 124% | viability, T/C (second compound 1 µM, first compound 0.01 µM) 116% | viability, T/C [9] 123% | viability, T/C [10] 112% | viability, T/C [11] 99% | viability, T/C [12] 96.9% | viability, T/C (second compound 3.16 µM, first compound 0.00316 µM) 77.5% | viability, T/C (second compound 3.16 µM, first compound 0.01 µM) 80.4% | viability, T/C [13] 78.5% | viability, T/C [14] 90.4% | viability, T/C [15] 85.4% | viability, T/C [16] 76.2% | viability, T/C (second compound 10 µM, first compound 0.00316 µM) 8.18% | viability, T/C (second compound 10 µM, first compound 0.01 µM) 13.5% | viability, T/C [17] 11.1% | viability, T/C [18] 9.3% | viability, T/C [19] 8.63% | viability, T/C [20] 10.9%
< 0.00316 µM: IC50 (second compound 10 µM)
> 1 µM: IC50 (second compound 0.1 µM) | IC50 (second compound 0.316 µM) | IC50 (second compound 1 µM) | IC50 (second compound 3.16 µM)

Nc1ccn(C2OC(CO)C(O)C2(F)F)c(=O)n1 (stereo not given) + Cc1cncc(-c2nc(NCCc3c[nH]c4ccccc34)c3ncn(C(C)C)c3n2)c1
< 0.0316 µM: IC50 (second compound 0.1 µM) | IC50 (second compound 0.316 µM) | IC50 (second compound 1 µM) | IC50 (second compound 3.16 µM) | IC50 (second compound 10 µM)
active: viability, T/C [1] 6.61% | viability, T/C [2] 6.32% | viability, T/C [3] 4.8% | viability, T/C [4] 5.2% | viability, T/C [21] 8.48% | viability, T/C [22] 7.97% | viability, T/C [5] 7.89% | viability, T/C [6] 7.93% | viability, T/C [7] 6.11% | viability, T/C [8] 6.04% | viability, T/C [23] 7.74% | viability, T/C [24] 6.69% | viability, T/C [9] 6.44% | viability, T/C [10] 6.22% | viability, T/C [11] 6.31% | viability, T/C [12] 5.01% | viability, T/C [25] 6.11% | viability, T/C [26] 5.37% | viability, T/C [13] 2.07% | viability, T/C [14] 1.87% | viability, T/C [15] 3.18% | viability, T/C [16] 1.68% | viability, T/C [27] 3.27% | viability, T/C [28] 7.69% | viability, T/C [17] 0.4% | viability, T/C [18] 0.29% | viability, T/C [19] 0.24% | viability, T/C [20] 0.33% | viability, T/C [29] 0.61% | viability, T/C [30] 0.37%

O=C(C=Cn1cnc(-c2cc(C(F)(F)F)cc(C(F)(F)F)c2)n1)NNc1cnccn1 + Cc1cncc(-c2nc(NCCc3c[nH]c4ccccc34)c3ncn(C(C)C)c3n2)c1
0.412 µM: IC50 (second compound 3.16 µM)
0.736 µM: IC50 (second compound 0.1 µM)
inactive: viability, T/C (second compound 0.1 µM, first compound 0.00949 µM) 118% | viability, T/C (second compound 0.1 µM, first compound 0.03 µM) 125% | viability, T/C (second compound 0.1 µM, first compound 0.0949 µM) 134% | viability, T/C (second compound 0.1 µM, first compound 0.3 µM) 75.5% | viability, T/C (second compound 0.1 µM, first compound 0.949 µM) 50.2% | viability, T/C (second compound 0.1 µM, first compound 3 µM) 20.5% | viability, T/C (second compound 0.316 µM, first compound 0.00949 µM) 130% | viability, T/C (second compound 0.316 µM, first compound 0.03 µM) 142% | viability, T/C (second compound 0.316 µM, first compound 0.0949 µM) 151% | viability, T/C (second compound 0.316 µM, first compound 0.3 µM) 76% | viability, T/C (second compound 0.316 µM, first compound 0.949 µM) 49.4% | viability, T/C (second compound 0.316 µM, first compound 3 µM) 19.9% | viability, T/C (second compound 1 µM, first compound 0.00949 µM) 127% | viability, T/C (second compound 1 µM, first compound 0.03 µM) 131% | viability, T/C (second compound 1 µM, first compound 0.0949 µM) 129% | viability, T/C (second compound 1 µM, first compound 0.3 µM) 67.5% | viability, T/C (second compound 1 µM, first compound 0.949 µM) 44.9% | viability, T/C (second compound 1 µM, first compound 3 µM) 19.9% | viability, T/C (second compound 3.16 µM, first compound 0.00949 µM) 116% | viability, T/C (second compound 3.16 µM, first compound 0.03 µM) 146% | viability, T/C (second compound 3.16 µM, first compound 0.0949 µM) 131% | viability, T/C (second compound 3.16 µM, first compound 0.3 µM) 57.6% | viability, T/C (second compound 3.16 µM, first compound 0.949 µM) 37.6% | viability, T/C (second compound 3.16 µM, first compound 3 µM) 21.9% | viability, T/C (second compound 10 µM, first compound 0.00949 µM) 12.7% | viability, T/C (second compound 10 µM, first compound 0.03 µM) 18.3% | viability, T/C (second compound 10 µM, first compound 0.0949 µM) 11.7%
active: viability, T/C (second compound 10 µM, first compound 0.3 µM) 4.08% | viability, T/C (second compound 10 µM, first compound 0.949 µM) 5.46% | viability, T/C (second compound 10 µM, first compound 3 µM) 4.69%
< 0.00949 µM: IC50 (second compound 10 µM)
0.562 µM: IC50 (second compound 1 µM)
0.619 µM: IC50 (second compound 0.316 µM)

O=C(c1cc(Cc2n[nH]c(=O)c3ccccc23)ccc1F)N1CCN(C(=O)C2CC2)CC1 + Cc1cncc(-c2nc(NCCc3c[nH]c4ccccc34)c3ncn(C(C)C)c3n2)c1
< 0.0316 µM: IC50 (second compound 10 µM)
> 10 µM: IC50 (second compound 0.1 µM) | IC50 (second compound 0.316 µM) | IC50 (second compound 1 µM) | IC50 (second compound 3.16 µM)
inactive: viability, T/C [1] 125% | viability, T/C [2] 119% | viability, T/C [3] 133% | viability, T/C [4] 125% | viability, T/C [21] 120% | viability, T/C [22] 131% | viability, T/C [5] 115% | viability, T/C [6] 126% | viability, T/C [7] 123% | viability, T/C [8] 126% | viability, T/C [23] 128% | viability, T/C [24] 120% | viability, T/C [9] 112% | viability, T/C [10] 123% | viability, T/C [11] 112% | viability, T/C [12] 112% | viability, T/C [25] 121% | viability, T/C [26] 108% | viability, T/C [13] 80.2% | viability, T/C [14] 82.3% | viability, T/C [15] 82.8% | viability, T/C [16] 85.1% | viability, T/C [27] 79.3% | viability, T/C [28] 77.9% | viability, T/C [17] 10.6% | viability, T/C [18] 18% | viability, T/C [19] 9.64% | viability, T/C [20] 16.9% | viability, T/C [29] 15.3% | viability, T/C [30] 13%
